Target: T1, NMDA receptor GRIN1/GRIN2B (NR2B) expressed in HEK293 cells (Homo sapiens, UniProt Q13224)
T1 construct: host or cells: HEK293
Assay: Reversal of Ro 25-6981-mediated suppression of the Ca2+ response (fluo-8 fluorescence, FDSS) in HEK293 cells expressing GRIN1 and GRIN2B
Format: cell-based
Conditions: % reversal=100*(R−Rneg)/(Rpos−Rneg) of Ro 25-6981 suppression of co-agonist (glutamate/glycine) Ca2+ response, 10 min pre-incubation, compound concentration not given
Procedure: HEK293 cells with constructs conferring stable expression of the GRIN1 gene and tetracycline-inducible expression of the GRIN2B gene (Chantest, Cleveland, Ohio) are grown to ˜75% confluence in tissue culture flasks at 37° C., 5% CO2. NR2B expression is induced by overnight incubation with 0.3-0.4 μg/ml tetracycline in the presence of 2.5 mM ARL-15896 at 37° C., followed by moving to 30° C. for 3-5 hours. Cells are next harvested using TripleExpress™ (Life Technologies, Carlsbad, Calif.) according to the manufacturer's instructions, first removing culture medium, rinsing with Dulbecco's phosphate buffered saline (Ca^2+ and Mg^2+-free), and then adding the TripleExpress™ reagent. Harvested cells are spun down, washed twice in Ca^2+- and Mg^2+-free Hank's Balanced Salt Solution with 20 mM HEPES and 10 mM glucose, pH 7.4 (HHnoCa solution), and counted with viability assessed using Trypan Blue. Cells are loaded with fluo-8 Ca^2+-sensitive dye in HHnoCa solution according to the manufacturer's directions (AAT Bioquest, Sunnyvale, Calif.), incubating at 37° C. for 20 minutes followed by 25 minutes at 22-25° C. After a wash in HHnoCa to remove extracellular dye, cells are resuspended in HHnoCa and plated at […] cells per well in a volume of 25 μl/well in 384 well black-wall, clear bottom plates (Hamamatsu, Middlesex, N.J.). Plates are then centrifuged to create a monolayer in the wells and stored in the dark until used.
Prior to analysis, compound plates are prepared with each compound at 6× the final desired concentration. From stock solutions at 10 mM in 100% DMSO, compounds are spotted in the desired amounts using an ECHO liquid handler (Labcyte, Sunnyvale, Calif.) into wells of a 384-well plate and then diluted with 50 μl of HHnoCa containing 750 nM Ro 25-6981 and 120 μM 5,7-dichlorokynurenic acid (both purchased from Tocris Bioscience (Bristol, England) and maintained as 10 mM stock solutions in 100% DMSO). To insure complete compound dissolution, these plates are then placed in an orbital shaker for at least one hour. Also prepared prior to the assay is a co-agonist plate containing HHnoCa with 240 μM glutamate, 2.4 mM glycine, and 7.2 mM CaCl2, which is 2.4× the desired final concentration of each reagent. Both the compound plate and co-agonist plate are 384-well polypropylene plates from Thermo Fisher Scientific, Waltham, Mass.
The assay is performed by first adding 10 μl solution from each well of the compound plate described above to the cell plate using a CyBiWell liquid handler (Analytik Jena AG, Jena, Germany), followed by 10 minutes pre-incubation in the dark. Cell plates are then loaded onto a Hamamatsu FDSS 6000 plate reader. After a 30-second baseline, 25 μl is added to each well from the co-agonist plate, and the fluorescence signal is recorded for another 2 minutes. FDSS software applies shading and autofluorescence correction, and resultant raw fluorescence measurements are exported in the form of a fluorescence ratio for each well to its own reading at time zero in the experiment. In each plate, negative control wells consist of wells where Ro 25-6981 and 5,7 dichlorokynurenic acid are present and co-agonist is applied in the absence of any added assay compound. Under these conditions, the Ca^2+ response to co-agonist is suppressed. Positive control wells also present in each plate contain 5,7 dichlorokynurenic acid but no Ro 25-6981, so that co-agonist addition results in a large Ca^2+ response. Compounds tested are evaluated on the basis of their ability to reverse the suppression of the Ca^2+ response mediated by Ro 25-6981, which is quantified as % reversal=100*(R−Rneg)/(Rpos−Rneg) where R is the fluorescence ratio for the test compound at the end of the experiment and Rneg and Rpos are the end ratios for the negative and positive controls, respectively. […]

T1 sequence (Q13224 27-1484, other chains not shown): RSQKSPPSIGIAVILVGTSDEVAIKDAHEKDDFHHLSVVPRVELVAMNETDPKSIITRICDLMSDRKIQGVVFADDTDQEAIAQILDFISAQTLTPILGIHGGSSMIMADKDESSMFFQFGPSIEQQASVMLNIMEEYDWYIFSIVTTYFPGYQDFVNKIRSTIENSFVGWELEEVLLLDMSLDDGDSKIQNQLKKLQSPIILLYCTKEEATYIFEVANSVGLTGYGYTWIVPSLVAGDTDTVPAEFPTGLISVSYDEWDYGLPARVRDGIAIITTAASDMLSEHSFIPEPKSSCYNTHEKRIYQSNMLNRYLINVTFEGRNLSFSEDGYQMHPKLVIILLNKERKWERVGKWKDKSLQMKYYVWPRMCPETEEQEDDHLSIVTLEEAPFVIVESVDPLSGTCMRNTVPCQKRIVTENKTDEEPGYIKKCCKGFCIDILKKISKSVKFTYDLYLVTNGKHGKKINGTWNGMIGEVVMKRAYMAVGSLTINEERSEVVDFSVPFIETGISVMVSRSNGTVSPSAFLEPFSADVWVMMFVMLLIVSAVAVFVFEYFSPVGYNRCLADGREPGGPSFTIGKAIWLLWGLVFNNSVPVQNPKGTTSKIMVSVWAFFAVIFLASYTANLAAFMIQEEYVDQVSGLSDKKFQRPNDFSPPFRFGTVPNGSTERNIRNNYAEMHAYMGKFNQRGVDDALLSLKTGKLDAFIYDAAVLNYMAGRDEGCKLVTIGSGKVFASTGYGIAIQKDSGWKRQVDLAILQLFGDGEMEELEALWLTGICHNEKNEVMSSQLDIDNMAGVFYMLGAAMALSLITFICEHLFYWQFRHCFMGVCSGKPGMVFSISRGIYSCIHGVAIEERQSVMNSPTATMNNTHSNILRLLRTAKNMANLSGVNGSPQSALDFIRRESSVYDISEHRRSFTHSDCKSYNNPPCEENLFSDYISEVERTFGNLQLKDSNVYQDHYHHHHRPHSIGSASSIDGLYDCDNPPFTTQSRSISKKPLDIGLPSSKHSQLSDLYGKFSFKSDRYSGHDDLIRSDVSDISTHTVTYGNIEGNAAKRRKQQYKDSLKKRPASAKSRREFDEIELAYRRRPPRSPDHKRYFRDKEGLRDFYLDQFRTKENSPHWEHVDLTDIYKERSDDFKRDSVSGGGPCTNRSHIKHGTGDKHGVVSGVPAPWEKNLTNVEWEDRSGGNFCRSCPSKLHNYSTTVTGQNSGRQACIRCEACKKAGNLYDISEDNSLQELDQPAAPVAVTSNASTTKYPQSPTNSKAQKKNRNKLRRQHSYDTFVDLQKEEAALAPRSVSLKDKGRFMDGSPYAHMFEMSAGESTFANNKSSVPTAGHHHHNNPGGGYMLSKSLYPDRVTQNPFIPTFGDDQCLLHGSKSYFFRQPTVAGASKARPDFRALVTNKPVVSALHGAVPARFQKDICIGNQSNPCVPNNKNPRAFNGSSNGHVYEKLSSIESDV

Compound	Response Recovered (%)
O=C(Cn1cnc2scc(-c3ccc(C(F)(F)F)cc3)c2c1=O)N1CCCC1 [Example 17, 3-[2-oxo-2-(pyrrolidin-1-yl)ethyl]-5-[4-(trifluoromethyl)phenyl]-3H,4H-thieno[2,3-d]pyrimidin-4-one]	11
O=C(Cn1cnc2scc(-c3cccc(C(F)(F)F)c3)c2c1=O)N1CCCC1 [Example 55, 3-[2-oxo-2-(pyrrolidin-1-yl)ethyl]-5-[3-(trifluoromethyl)phenyl]-3H,4H-thieno[2,3-d]pyrimidin-4-one]	33
O=C(CCn1cnc2scc(-c3ccc(Cl)c(C(F)(F)F)c3)c2c1=O)N1CCCC1C(F)(F)F (stereo not drawn) [Example 103, 5-[4-chloro-3-(trifluoromethyl)phenyl]-3-{3-oxo-3-[2-(trifluoromethyl)pyrrolidin-1-yl]propyl}-3H,4H-thieno[2,3-d]pyrimidin-4-one]	−2
O=C(Cn1cnc2scc(-c3ccc(Cl)c(F)c3)c2c1=O)N1CCCC1 [Example 21, 5-(4-chloro-3-fluorophenyl)-3-(2-oxo-2-(pyrrolidin-1-yl)ethyl)thieno[2,3-d]pyrimidin-4(3H)-one]	19
O=C(Cn1cnc2scc(-c3ccc(C(F)(F)F)cc3)c2c1=O)N1CCCCC1 [Example 26, 3-[2-oxo-2-(piperidin-1-yl)ethyl]-5-[4-(trifluoromethyl)phenyl]-3H,4H-thieno[2,3-d]pyrimidin-4-one]	1
O=C(Cn1cnc2scc(-c3ccc(C(F)(F)F)cc3Cl)c2c1=O)N1CCCC1 [Example 43, 5-[2-chloro-4-(trifluoromethyl)phenyl]-3-[2-oxo-2-(pyrrolidin-1-yl)ethyl]-3H,4H-thieno[2,3-d]pyrimidin-4-one]	8
O=C(Cn1cnc2sc(-c3ccc(Cl)cc3)cc2c1=O)NC1CC1 [Example 76, 2-[6-(4-chlorophenyl)-4-oxo-3H,4H-thieno[2,3-d]pyrimidin-3-yl]-N-cyclopropylacetamide]	34
O=C(Cn1cnc2scc(-c3cncc(F)c3)c2c1=O)N1CCCC1 [Example 39, 5-(5-fluoropyridin-3-yl)-3-[2-oxo-2-(pyrrolidin-1-yl)ethyl]-3H,4H-thieno└2,3-d┘pyrimidin-4-one]	3
O=C(Cn1cnc2scc(-c3cccc(OC(F)(F)F)c3)c2c1=O)N1CCCC1 [Example 51, 3-[2-oxo-2-(pyrrolidin-1-yl)ethyl]-5-[3-(trifluoromethoxy)phenyl]-3H,4H-thieno└2,3-d┘pyrimidin-4-one]	27
O=C(Cn1cnc2scc(-c3ccc(F)cc3)c2c1=O)N1CCCCC1 [Example 24, 5-(4-fluorophenyl)-3-[2-oxo-2-(piperidin-1-yl)ethyl]-3H,4H-thieno[2,3-d]pyrimidin-4-one]	4
O=C(Cn1cnc2scc(-c3ccc(OC(F)(F)F)cc3)c2c1=O)N1CCCC1 [Example 34, 3-[2-oxo-2-(pyrrolidin-1-yl)ethyl]-5-[4-(trifluoromethoxy)phenyl]-3H,4H-thieno[2,3-d]pyrimidin-4-one]	16
O=C(Cn1cnc2scc(-c3ccc(Cl)cc3)c2c1=O)N1CCC(F)CC1 [Example 2, 5-(4-chlorophenyl)-3-[2-(4-fluoropiperidin-1-yl)-2-oxoethyl]-3H,4H-thieno[2,3-d]pyrimidin-4-one]	25
O=C(Cn1cnc2scc(-c3ccc(C(F)(F)F)cc3)c2c1=O)N1CCCC1C(F)(F)F (stereo not drawn) [Example 18, 3-{2-oxo-2-[2-(trifluoromethyl)pyrrolidin-1-yl]ethyl}-5-[4-(trifluoromethyl)phenyl]-3H,4H-thieno[2,3-d]pyrimidin-4-one]	8
O=C(Cn1cnc2scc(-c3cnc(Cl)c(C(F)(F)F)c3)c2c1=O)N1CC(F)C(F)C1 (stereo not drawn) [Example 71, 5-[6-chloro-5-(trifluoromethyl)pyridin-3-yl]-3-[2-(3,4-difluoropyrrolidin-1-yl)-2-oxoethyl]-3H,4H-thieno[2,3-d]pyrimidin-4-one]	25
C[C@H]1CCCN1C(=O)Cn1cnc2scc(-c3ccc(Cl)cc3)c2c1=O [Example 10, 5-(4-chlorophenyl)-3-{2-[(2S)-2-methylpyrrolidin-1-yl]-2-oxoethyl}-3H,4H-thieno[2,3-d]pyrimidin-4-one]	2
O=C(Cn1cnc2scc(-c3ccc(Cl)c(C(F)(F)F)c3)c2c1=O)N1CCC(F)C1 (stereo not drawn) [Example 19, 5-[4-chloro-3-(trifluoromethyl)phenyl]-3-[2-(3-fluoropyrrolidin-1-yl)-2-oxoethyl]-3H,4H-thieno[2,3-d]pyrimidin-4-one]	93

More lines, now with the values ahead:

Response Recovered (%)	Compound
−2	O=C(Cn1c(C(F)(F)F)nc2scc(-c3ccc(Cl)cc3)c2c1=O)N1CCCC1C(F)(F)F (stereo not drawn) [Example 104, 5-(4-chlorophenyl)-3-(2-oxo-2-(2-(trifluoromethyl)pyrrolidin-1-yl)ethyl)-2-(trifluoromethyl)thieno[2,3-d]pyrimidin-4(3H)-one]
7	O=C(Cn1cnc2scc(-c3ccc(F)cc3)c2c1=O)N1CCCC1C(F)(F)F (stereo not drawn) [Example 27]
5	O=C(Cn1cnc2scc(-c3ccc(F)cc3Cl)c2c1=O)N1CCCC1 [Example 53, 5-(2-chloro-4-fluorophenyl)-3-[2-oxo-2-(pyrrolidin-1-yl)ethyl]-3H,4H-thieno└2,3-d┘pyrimidin-4-one]
3	O=C(Cn1cnc2scc(-c3ccc(Cl)cc3)c2c1=O)N1CCCCC1 [Example 8, 5-(4-chlorophenyl)-3-[2-oxo-2-(piperidin-1-yl)ethyl]-3H,4H-thieno[2,3-d]pyrimidin-4-one]
61	O=C(Cn1cnc2scc(-c3ccc(Cl)c(Cl)c3)c2c1=O)N1CCCC1 [Example 37, 5-(3,4-dichlorophenyl)-3-[2-oxo-2-(pyrrolidin-1-yl)ethyl]-3H,4H-thieno[2,3-d]pyrimidin-4-one]
2	CCOC(=O)Cn1c(C)nc2scc(-c3ccc(Cl)cc3)c2c1=O [Example 97, Ethyl 2-(5-(4-chlorophenyl)-2-methyl-4-oxothieno[2,3-d]pyrimidin-3(4H)-yl)acetate]
14	CN(C)/C=N/n1cnc2scc(-c3ccc(Cl)c(C(F)(F)F)c3)c2c1=O [Example 100, (E)-N′-(5-(4-chloro-3-(trifluoromethyl)phenyl)-4-oxothieno[2,3-d]pyrimidin-3(4H)-yl)-N,N-dimethylformimidamide]
3	CN1CCN(C(=O)Cn2cnc3scc(-c4ccc(Cl)cc4)c3c2=O)CC1 [Example 3, 5-(4-chlorophenyl)-3-[2-(4-methylpiperazin-1-yl)-2-oxoethyl]-3H,4H-thieno└2,3-d┘pyrimidin-4-one]
15	Cc1sc2ncn(CC(=O)N3CCCC3)c(=O)c2c1-c1ccc(Cl)c(C(F)(F)F)c1 [Example 82, 5-[4-chloro-3-(trifluoromethyl)phenyl]-6-methyl-3-[2-oxo-2-(pyrrolidin-1-yl)ethyl]-3H,4H-thieno[2,3-d]pyrimidin-4-one]
1	Cn1nccc1-c1csc2ncn(CC(=O)N3CCCC3)c(=O)c12 [Example 33, 5-(1-methyl-1H-pyrazol-5-yl)-3-[2-oxo-2-(pyrrolidin-1-yl)ethyl]-3H,4H-thieno[2,3-d]pyrimidin-4-one]
37	O=C(COn1cnc2scc(-c3ccc(Cl)c(C(F)(F)F)c3)c2c1=O)N1CCCC1 [Example 92, 5-(4-chloro-3-(trifluoromethyl)phenyl)-3-(2-oxo-2-(pyrrolidin-1-yl)ethoxy)thieno[2,3-d]pyrimidin-4(3H)-one]

Source: US11541057B2, “Thienopyrimidinone NMDA receptor modulators and uses thereof” (Cadent Therapeutics, Inc., priority 2015, dated 2023)
